Experimental data as given in US11401286B2 (Tetra Discovery Partners, LLC, priority 2012, dated 2022).
Where a name gives a salt, the structure may show the parent alone. Read-outs that look alike come from different tables or passages of the source.

Target: PDE4D7 (Homo sapiens (Human), UniProt Q08499)
[1] = read-out: PDE4D7 IC50, PDE4D7 without asterisk

PDE4D7, sequence (Q08499 other isoform, or with tags, fused parts or gaps): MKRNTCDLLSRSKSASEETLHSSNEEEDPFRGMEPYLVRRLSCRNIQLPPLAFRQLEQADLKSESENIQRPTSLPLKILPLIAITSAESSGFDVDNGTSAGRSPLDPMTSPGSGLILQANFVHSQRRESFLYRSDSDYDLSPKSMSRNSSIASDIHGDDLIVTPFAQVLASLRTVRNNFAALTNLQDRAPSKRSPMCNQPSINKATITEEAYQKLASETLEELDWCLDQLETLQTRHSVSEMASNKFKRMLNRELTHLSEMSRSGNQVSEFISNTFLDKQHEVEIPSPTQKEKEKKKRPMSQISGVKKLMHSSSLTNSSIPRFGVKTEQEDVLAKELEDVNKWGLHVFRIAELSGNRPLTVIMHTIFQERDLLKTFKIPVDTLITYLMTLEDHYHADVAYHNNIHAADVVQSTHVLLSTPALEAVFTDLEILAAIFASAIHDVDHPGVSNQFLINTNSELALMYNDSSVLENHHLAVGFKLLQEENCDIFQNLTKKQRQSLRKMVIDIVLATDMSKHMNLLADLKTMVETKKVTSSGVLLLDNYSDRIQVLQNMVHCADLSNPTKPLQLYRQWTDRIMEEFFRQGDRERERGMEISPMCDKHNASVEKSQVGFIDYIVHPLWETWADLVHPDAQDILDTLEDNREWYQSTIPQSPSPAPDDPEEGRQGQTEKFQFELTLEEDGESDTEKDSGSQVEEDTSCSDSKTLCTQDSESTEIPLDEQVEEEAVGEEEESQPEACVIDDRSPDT

Row | Compound | IC50 [1] [µM] | also measured
1 | Cc1cccc(-c2cc(Nc3ccc(CCO)cc3)c3c(n2)CCC3)c1 [Example 160, 2-(4-((2-(m-Tolyl)-6,7-dihydro-5H-cyclopenta[b]pyridin-4-yl)amino)phenyl)ethanol hydrochloride] | > 1 | –
2 | O=C(O)Cc1ccc(Nc2cc(C3CCCC3)nc(C(F)(F)F)c2)cc1 [Example 161, 2-(4-((2-Cyclopentyl-6-(trifluoromethyl)pyridin-4-yl)amino)phenyl)acetic acid] | > 1 | –
3 | Clc1cccc(-c2nc3c(c(Nc4ccccc4)n2)CCC3)c1 [Example 166, 2-(3-Chlorophenyl)-N-phenyl-6,7-dihydro-5H-cyclopenta[d]pyrimidin-4-amine] | > 1 | –
4 | CCc1cc(Nc2ccc(CCN(C)C)cc2)nc(-c2cccc(Cl)c2)n1 [Example 170, 2-(3-Chlorophenyl)-N-(4-(2-(dimethylamino)ethyl)phenyl)-6-ethylpyrimidin-4-amine hydrochloride] | > 1 | –
5 | CCc1cc(Nc2ccc(CC(N)=O)cc2)nc(-c2cccc(Cl)c2)n1 [Example 171, 2-(4-((2-(3-Chlorophenyl)-6-ethylpyrimidin-4-yl)amino)phenyl)acetamide] | < 1 | –
6 | Cc1cc(Nc2nc(-c3cccc(Cl)c3)nc3c2CCC3)ccc1CC#N [Example 177, 2-(4-((2-(3-Chlorophenyl)-6,7-dihydro-5H-cyclopenta[d]pyrimidin-4-yl)amino)-2-methylphenyl)acetonitrile] | > 1 | –
7 | NC(=O)CCCNc1nc(-c2cccc(Cl)c2)nc2c1CCC2 [Example 178, 4-((2-(3-Chlorophenyl)-6,7-dihydro-5H-cyclopenta[d]pyrimidin-4-yl)amino)butanamide] | > 1 | –
8 | Clc1cccc(-c2nc3c(c(Nc4ccc(Cc5ncco5)cc4)n2)CCC3)c1 [Example 179, 2-(3-Chlorophenyl)-N-(4-(oxazol-2-ylmethyl)phenyl)-6,7-dihydro-5H-cyclopenta[d]pyrimidin-4-amine] | > 1 | –
9 | CCc1cc(Oc2ccc(CC(N)=O)cc2)nc(-c2cccc(Cl)c2)n1 [Example 181, 2-(4-((2-(3-Chlorophenyl)-6-ethylpyrimidin-4-yl)oxy)phenyl)acetamide] | – | IC50 (read-out: PDE4D7 IC50): > 1 µM
10 | CCc1cc(Oc2ccc(CCO)cc2)nc(-c2cccc(Cl)c2)n1 [Example 182, 2-(4-((2-(3-Chlorophenyl)-6-ethylpyrimidin-4-yl)oxy)phenyl)ethanol] | – | IC50 (read-out: PDE4D7 IC50): < 1 µM
11 | CCc1cc(Oc2ccc(CC(N)=O)cn2)nc(-c2cccc(Cl)c2)n1 [Example 183, 2-(6-((2-(3-Chlorophenyl)-6-ethylpyrimidin-4-yl)oxy)pyridin-3-yl)acetamide] | > 1 | –
12 | CCc1cc(Nc2ccc(C(C)(C)CO)cc2)nc(-c2cccc(Cl)c2)n1 [Example 184, 2-(4-((2-(3-Chlorophenyl)-6-ethylpyrimidin-4-yl)amino)phenyl)-2-methylpropan-1-ol] | > 1 | –
13 | CCOC(=O)Cc1ccc(Nc2cc(CC)nc(-c3cccc(Cl)c3)n2)cc1 [Example 185, Ethyl 2-(4-((2-(3-chlorophenyl)-6-ethylpyrimidin-4-yl)amino)phenyl)acetate] | > 1 | –
14 | CCc1cc(Nc2ccc(C(CO)C(F)(F)F)cc2)nc(-c2cccc(Cl)c2)n1 (stereo not shown) [Example 186, 2-(4-((2-(3-Chlorophenyl)-6-ethylpyrimidin-4-yl)amino)phenyl)-3,3,3-trifluoropropan-1-ol] | > 1 | –
15 | CCc1cc(Nc2ccc(C(C)(C)C(N)=O)cc2)nc(-c2cccc(Cl)c2)n1 [Example 187, 2-(4-((2-(3-Chlorophenyl)-6-ethylpyrimidin-4-yl)amino)phenyl)-2-methylpropanamide] | > 1 | –
16 | CCc1cc(Nc2ccc(Cn3cc(Cl)cn3)cc2)nc(-c2cccc(Cl)c2)n1 [Example 188, N-(4-((4-Chloro-1H-pyrazol-1-yl)methyl)phenyl)-2-(3-chlorophenyl)-6-ethylpyrimidin-4-amine] | > 1 | –
17 | CCc1cc(Nc2ccc(Cn3cccn3)cc2)nc(-c2cccc(Cl)c2)n1 [Example 189, N-(4-((1H-Pyrazol-1-yl)methyl)phenyl)-2-(3-chlorophenyl)-6-ethylpyrimidin-4-amine] | < 1 | –
18 | CCc1cc(Cc2ccc(Cn3cc(Cl)cn3)cc2)nc(-c2cccc(Cl)c2)n1 [Example 190, 4-(4-((4-Chloro-1H-pyrazol-1-yl)methyl)benzyl)-2-(3-chlorophenyl)-6-ethylpyrimidine] | < 1 | –
19 | CCc1cc(Nc2ccc(CCO)cc2)nc(-c2cccc(Cl)c2)n1 [Example 191, 2-(4-((2-(3-chlorophenyl)-6-ethylpyrimidin-4-yl)amino)phenyl)ethanol] | – | IC50 (read-out: PDE4D7 IC50): < 1 µM
20 | CCc1cc(/N=c2\[nH]cc(CC(N)=O)o2)nc(-c2cccc(Cl)c2)n1 [Example 192, 2-(2-((2-(3-Chlorophenyl)-6-ethylpyrimidin-4-yl)imino)-2,3-dihydrooxazol-5-yl)acetamide] | > 1 | –
21 | CCCNC(=O)Cc1ccc(Cc2cc(CC)nc(-c3cccc(Cl)c3)n2)cc1 [Example 193, 2-(4-((2-(3-Chlorophenyl)-6-ethylpyrimidin-4-yl)methyl)phenyl)-N-propylacetamide] | – | IC50: > 1 µM
22 | CCCN(C)C(=O)Cc1ccc(Cc2cc(CC)nc(-c3cccc(Cl)c3)n2)cc1 [Example 194, 2-(4-((2-(3-Chlorophenyl)-6-ethylpyrimidin-4-yl)methyl)phenyl)-N-methyl-N-propylacetamide] | < 1 | –
23 | CCc1cc(Cc2ccc(CC(=O)NCCO)cc2)nc(-c2cccc(Cl)c2)n1 [Example 195, 2-(4-((2-(3-chlorophenyl)-6-ethylpyrimidin-4-yl)methyl)phenyl)-N-(2-hydroxyethyl)acetamide] | < 1 | –
24 | CCc1cc(Cc2ccc(C(C)(C)C(N)=O)cc2)nc(-c2cccc(Cl)c2)n1 [Example 196, 2-(4-((2-(3-Chlorophenyl)-6-ethylpyrimidin-4-yl)methyl)phenyl)-2-methylpropanamide] | > 1 | –
25 | CCc1cc(Cc2ccc(C(C)(C)CO)cc2)nc(-c2cccc(Cl)c2)n1 [Example 197, 2-(4-((2-(3-Chlorophenyl)-6-ethylpyrimidin-4-yl)methyl)phenyl)-2-methylpropan-1-ol] | > 1 | –
26 | NC(=O)Cc1ccc(Nc2cc(C(F)(F)F)nc(OC3CCCC3)n2)cc1 [Example 198, 2-(4-((2-(Cyclopentyloxy)-6-(trifluoromethyl)pyrimidin-4-yl)amino)phenyl)acetamide] | > 1 | –
27 | OCCc1ccc(Nc2cc(C(F)(F)F)nc(OC3CCCC3)n2)cc1 [Example 199, 2-(4-((2-(Cyclopentyloxy)-6-(trifluoromethyl)pyrimidin-4-yl)amino)phenyl)ethanol] | < 1 | –

The next lines start with results.

Row | IC50 [1] [µM] | Compound | also measured
28 | < 1 | OCCc1ccc(Nc2nc(-c3cccc(Cl)c3)nc3c2CCC3)cc1 [Example 162, 2-(4-((2-(3-Chlorophenyl)-6,7-dihydro-5H-cyclopenta[d]pyrimidin-4-yl)amino)phenyl)ethanol] | –
29 | < 1 | OCCCc1ccc(Nc2nc(-c3cccc(Cl)c3)nc3c2CCC3)cc1 [Example 163, 3-(4-((2-(3-Chlorophenyl)-6,7-dihydro-5H-cyclopenta[d]pyrimidin-4-yl)amino)phenyl)propan-1-ol] | –
30 | > 1 | CC(=O)Cc1ccc(Nc2nc(-c3cccc(Cl)c3)nc3c2CCC3)cc1 [Example 164, 1-(4-((2-(3-Chlorophenyl)-6,7-dihydro-5H-cyclopenta[d]pyrimidin-4-yl)amino)phenyl)propan-2-one] | –
31 | > 1 | CC(O)Cc1ccc(Nc2nc(-c3cccc(Cl)c3)nc3c2CCC3)cc1 (stereo not shown) [Example 165, 1-(4-((2-(3-Chlorophenyl)-6,7-dihydro-5H-cyclopenta[d]pyrimidin-4-yl)amino)phenyl)propan-2-ol] | –
32 | > 1 | NC(=O)CCc1ccc(Nc2nc(-c3cccc(Cl)c3)nc3c2CCC3)cc1 [Example 167, 3-(4-((2-(3-Chlorophenyl)-6,7-dihydro-5H-cyclopenta[d]pyrimidin-4-yl)amino)phenyl)propanamide] | –
33 | > 1 | NC(=O)C(CO)Cc1ccc(Nc2nc(-c3cccc(Cl)c3)nc3c2CCC3)cc1 (stereo not shown) [Example 168, 2-(4-((2-(3-Chlorophenyl)-6,7-dihydro-5H-cyclopenta[d]pyrimidin-4-yl)amino)benzyl)-3-hydroxypropanamide] | –
34 | > 1 | CN(C)CCc1ccc(Nc2nc(-c3cccc(Cl)c3)nc3c2CCC3)cc1 [Example 169, 2-(3-Chlorophenyl)-N-(4-(2-(dimethylamino)ethyl)phenyl)-6,7-dihydro-5H-cyclopenta[d]pyrimidin-4-amine hydrochloride] | –
35 | > 1 | C[C@@H](O)Cc1ccc(Nc2nc(-c3cccc(Cl)c3)nc3c2CCC3)cc1 [Example 172, (R)-1-(4-((2-(3-Chlorophenyl)-6,7-dihydro-5H-cyclopenta[d]pyrimidin-4-yl)amino)phenyl)propan-2-ol] | –
36 | > 1 | C[C@H](O)Cc1ccc(Nc2nc(-c3cccc(Cl)c3)nc3c2CCC3)cc1 [Example 173, (S)-1-(4-((2-(3-Chlorophenyl)-6,7-dihydro-5H-cyclopenta[d]pyrimidin-4-yl)amino)phenyl)propan-2-ol] | –
37 | > 1 | C=Cc1ccc(Nc2nc(-c3cccc(Cl)c3)nc3c2CCC3)cc1 [Example 174, 2-(3-Chlorophenyl)-N-(4-vinylphenyl)-6,7-dihydro-5H-cyclopenta[d]pyrimidin-4-amine] | –
38 | > 1 | OCC(O)c1ccc(Nc2nc(-c3cccc(Cl)c3)nc3c2CCC3)cc1 (stereo not shown) [Example 175, 1-(4-((2-(3-Chlorophenyl)-6,7-dihydro-5H-cyclopenta[d]pyrimidin-4-yl)amino)phenyl)ethane-1,2-diol] | –
39 | > 1 | OC(Cc1ccc(Nc2nc(-c3cccc(Cl)c3)nc3c2CCC3)cc1)C(F)(F)F (stereo not shown) [Example 176, 3-(4-((2-(3-Chlorophenyl)-6,7-dihydro-5H-cyclopenta[d]pyrimidin-4-yl)amino)phenyl)-1,1,1-trifluoropropan-2-ol] | –
40 | > 1 | NS(=O)(=O)Cc1ccc(Nc2nc(-c3cccc(Cl)c3)nc3c2CCC3)cc1 [Example 180, (4-((2-(3-Chlorophenyl)-6,7-dihydro-5H-cyclopenta[d]pyrimidin-4-yl)amino)phenyl)methanesulfonamide] | –
